Assay results as given in patent US5290689A, “New cyclic FR-900520 microbial biotransformation agent” (Merck & Co., Inc., priority 1992, dated 1994).
“Also recorded” adds a separate entry of the source.

Legend:
[1] = system: mouse T lymphocytes (Splenic T-cells stimulated with ionomycin + PMA); assay: T-cell proliferation assay (ionomycin + PMA stimulated, tritiated thymidine uptake); assay type: cell-based, mouse (C57B1/6)
Procedure: The principle of this assay is to measure the proliferation of mouse T lymphocytes stimulated with the combination of ionomycin plus PMA. A positive sample, e.g. FK-506, in this assay will inhibit T-cell proliferation, as indicated by reduced tritiated thymidine uptake.
T-Cell Proliferation Assay
Purified Compound I, as prepared by HPLC above, was dissolved in absolute ethanol at 1 mg/ml.
Spleens from C57B1/6 mice were taken under sterile conditions and gently dissociated in ice-cold RPMI 1640 culture medium (GIBCO, Grand Island, N.Y.) supplemented with 10% heat-inactivated fetal calf serum (GIBCO). Cells were pelleted by centrifugation at 1500 rpm for 8 minutes. Contaminating red cells were removed by treating the pellet with ammonium chloride lysing buffer (GIBCO) for 2 minutes at 4° C. […]
Purified T lymphocytes were resuspended at 2.5×10^5 cells/ml in complete culture medium composed of RPMI 1640 medium with 10% heat-inactivated fetal calf serum, […], 1 mM sodium pyruvate, 2×10^-5 M 2-mercaptoethanol and 50 μg/ml gentamycin. […] Radioactivity of filter discs corresponding to individual wells was measured by standard liquid scintillation counting methods (Betacounter). Mean counts per minute of replicate wells were calculated and the results expressed as percent inhibition of tritiated thymidine uptake (proliferation) as follows: [formula] […]

[2] = reputed; EPO Publication No. 0184162; cited from earlier work

Compound: CC[C@@H]1C=C2COC1(O)C[C@H](O)[C@@H](C)[C@@H](/C(C)=C/[C@@H]1CC[C@@H](O)[C@H](OC)C1)OC(=O)[C@@H]1CCCCN1C(=O)C(=O)[C@]1(O)O[C@H]([C@@H](OC)C[C@@H](C)C2)[C@@H](OC)C[C@H]1C [Compound I]
- Inhibition of T-cell proliferation on addition of IL2 ([1]; 50 units/ml recombinant IL2 added at the initiation of culture): reversed
- immunosuppressant activity (inhibition of T-cell activation) ([1]; qualitative): positive inhibition of T-cell activation; also recorded: positive immunosuppressive activity

Compound: C=CC[C@@H]1/C=C(\C)C[C@H](C)C[C@H](OC)[C@H]2O[C@@](O)(C(=O)C(=O)N3CCCC[C@H]3C(=O)O[C@H](/C(C)=C/[C@@H]3CC[C@@H](O)[C@H](OC)C3)[C@H](C)[C@@H](O)CC1=O)[C@H](C)C[C@@H]2OC [FK-506]
- effectiveness as immunosuppressant relative to cyclosporin [2]: 100 times
